Source: paper PMC6950567, “Evaluation of Marine Diindolinonepyrane in Vitro and in Vivo: Permeability Characterization in Caco-2 Cells Monolayer and Pharmacokinetic Properties in Beagle Dogs” (Marine Drugs, 2019)
Like-named read-outs stand apart in the source and are kept apart here.

Assays:
[1] = test system: Caco-2 cells monolayer; assay: Caco-2 cells monolayer absorption and bidirectional transport experiment; format: in vitro ADME, human
Description: (§1) The samples included three control drugs (fenoterol, propranolol, and digoxin) and 2,5-BHPA. […] For transfer in the AP→BL direction, 0.075 mL drug solution was added to the AP side as the supply pool, and 0.25 mL HBSS solution was added to the BL side as the receiving pool. In the BL→AP direction, 0.25 mL compound solution was added to the BL side as the supply pool, and 0.075 mL HBSS solution was added to the AP side as the receiving pool. The transwell plate was then cultured in an incubator at 37 °C for 2 h. Samples on the AP side and BL side were collected, respectively. Then, acetonitrile containing an internal label was added to each upper chamber to lyse transport membranes. The total recovery was calculated by collecting the amount of lead compound absorbed on the membrane surface or accumulated in the cell. Finally, the concentration of each sample was calculated as the ratio of the peak area between the compound and the inner target through mass spectrum analysis (API 4000).
(§2) Papp = (dCr/dt) × Vr/(A × C0)(2) where dCr/dt is the cumulative compound concentration per unit of time (µM/s); Vr is the volume in the receiving hole (mL); A is the transport membrane area; and C0 is the compound initiation concentration (µM).

[2] = as above; format: in vitro ADME, human; conditions: human
Description: as §1, §2

[3] = 5 µM, 0.1% bull serum albumin added
[4] = 15 µM, 0.1% bull serum albumin added
[5] = 25 µM, 0.1% bull serum albumin added

Recoveries AP to BL ([1]; 0.5 μM, no BSA): 8.745 ± 0.155% | Recoveries BL to AP ([1]; 0.5 μM, no BSA): 25.54 ± 1.55% | Total Recoveries AP to BL ([1]; 0.5 μM, no BSA): 35.77 ± 1.29% | Total Recoveries BL to AP ([1]; 0.5 μM, no BSA): 25.48 ± 1.13% | transport mechanism in the Caco-2 model ([1]; 2 µM to 25 µM): may involve passive diffusion | Recoveries AP to BL ([1]; 2 μM, no BSA): 13.419 ± 0.566% | Recoveries BL to AP ([1]; 2 μM, no BSA): 47.16 ± 1.32% | Total Recoveries AP to BL ([1]; 2 μM, no BSA): 39.67 ± 1.47% | Total Recoveries BL to AP ([1]; 2 μM, no BSA): 47.69 ± 2.10% | Recoveries AP to BL [1, 3]: 85.52 ± 2.34% | Recoveries BL to AP [1, 3]: 96.32 ± 5.15% | Total Recoveries AP to BL [1, 3]: 92.83 ± 3.44% | Total Recoveries BL to AP [1, 3]: 96.41 ± 3.52% | Recoveries AP to BL ([1]; 5 μM, no BSA): 26.76 ± 1.02% | Recoveries BL to AP ([1]; 5 μM, no BSA): 52.42 ± 2.20% | Total Recoveries AP to BL ([1]; 5 μM, no BSA): 52.34 ± 4.34% | Total Recoveries BL to AP ([1]; 5 μM, no BSA): 53.02 ± 2.01% | Recoveries AP to BL [1, 4]: 84.85 ± 3.36% | Recoveries BL to AP [1, 4]: 96.18 ± 6.56% | Total Recoveries AP to BL [1, 4]: 92.83 ± 4.26% | Total Recoveries BL to AP [1, 4]: 96.97 ± 4.32% | Recoveries AP to BL [1, 5]: 82.25 ± 2.28% | Recoveries BL to AP [1, 5]: 89.52 ± 4.19% | Total Recoveries AP to BL [1, 5]: 90.91 ± 4.63% | Total Recoveries BL to AP [1, 5]: 89.63 ± 3.26% | permeability classification ([1]; Papp ≤ 2.5 (×10^−6 cm·s^−1) indicated low permeability): low permeability | efflux ratio at 2 h, 0.5 µM ([2]; Caco-2, 0.5 μM, no BSA): 1.13 | Papp A→B at 2 h, 0.5 µM ([2]; Caco-2, 0.5 μM, no BSA, 2 h, read-out: Mean Papp AP to BL): 0.493 ± 0.016 ×10⁻⁶ cm/s | Papp B→A at 2 h, 0.5 µM ([2]; Caco-2, 0.5 μM, no BSA, 2 h, read-out: Mean Papp BL to AP): 0.555 ± 0.09 ×10⁻⁶ cm/s | efflux ratio at 2 h, 2 µM ([2]; Caco-2, 2 μM, no BSA): 1.55 | Papp A→B at 2 h, 2 µM ([2]; Caco-2, 2 μM, no BSA, 2 h, read-out: Mean Papp AP to BL): 0.048 ± 0.006 ×10⁻⁶ cm/s | Papp B→A at 2 h, 2 µM ([2]; Caco-2, 2 μM, no BSA, 2 h, read-out: Mean Papp BL to AP): 0.065 ± 0.005 ×10⁻⁶ cm/s | efflux ratio at 2 h, 5 µM ([2]; Caco-2, 5 µM, 0.1% bull serum albumin added): 1.56 | Papp A→B at 2 h, 5 µM ([2]; Caco-2, 5 µM, 0.1% bull serum albumin added, read-out: Mean Papp AP to BL): 0.097 ± 0.005 ×10⁻⁶ cm/s | Papp B→A at 2 h, 5 µM ([2]; Caco-2, 5 µM, 0.1% bull serum albumin added, read-out: Mean Papp BL to AP): 0.153 ± 0.012 ×10⁻⁶ cm/s | efflux ratio at 2 h, 5 µM ([2]; Caco-2, 5 μM, no BSA): 1.06 | Papp A→B at 2 h, 5 µM ([2]; Caco-2, 5 μM, no BSA, 2 h, read-out: Mean Papp AP to BL): 0.044 ± 0.003 ×10⁻⁶ cm/s | Papp B→A at 2 h, 5 µM ([2]; Caco-2, 5 μM, no BSA, 2 h, read-out: Mean Papp BL to AP): 0.043 ± 0.004 ×10⁻⁶ cm/s | efflux ratio at 2 h, 15 µM ([2]; Caco-2, 15 µM, 0.1% bull serum albumin added): 2.91 | Papp A→B at 2 h, 15 µM ([2]; Caco-2, 15 µM, 0.1% bull serum albumin added, read-out: Mean Papp AP to BL): 0.045 ± 0.002 ×10⁻⁶ cm/s | Papp B→A at 2 h, 15 µM ([2]; Caco-2, 15 µM, 0.1% bull serum albumin added, read-out: Mean Papp BL to AP): 0.132 ± 0.035 ×10⁻⁶ cm/s | efflux ratio at 2 h, 25 µM ([2]; Caco-2, 25 µM, 0.1% bull serum albumin added): 1.49 | Papp A→B at 2 h, 25 µM ([2]; Caco-2, 25 µM, 0.1% bull serum albumin added, read-out: Mean Papp AP to BL): 0.146 ± 0.009 ×10⁻⁶ cm/s | Papp B→A at 2 h, 25 µM ([2]; Caco-2, 25 µM, 0.1% bull serum albumin added, read-out: Mean Papp BL to AP): 0.216 ± 0.031 ×10⁻⁶ cm/s | Papp at 2 h ([2]; Caco-2, text summary of Table 2, 0.1% BSA added, read-out: Papp, AP→BL or BL→AP direction): ≤ 2.5 ×10⁻⁶ cm/s | recovery at 2 h ([2]; Caco-2, text summary of Table 2, 0.1% BSA added, read-out: total recovery rate): > 90% | Papp at 2 h ([2]; Caco-2, text summary, no BSA, over the concentrations tested, read-out: Papp range): 0.04 to 0.49 ×10⁻⁶ cm/s | recovery at 2 h ([2]; Caco-2, text summary, no BSA, over the concentrations tested, read-out: total recovery rate AP→BL): 35.8 to 52.4% | recovery at 2 h ([2]; Caco-2, text summary, no BSA, over the concentrations tested, read-out: total recovery rate BL→AP): 25.9 to 53%
SMILES: CC(C)=CCCC(C)=CCCC1(C)Oc2c(c(O)cc3c2CN(CCCC(C(=O)O)N2Cc4c(cc(O)c5c4OC(C)(CCC=C(C)CCC=C(C)C)C(O)C5)C2=O)C3=O)CC1O (stereo not shown) [2,5-BHPA, 2,5-Bis-[8-(4,8-dimethyl-nona-3,7-dienyl)-5,7-dihydroxy-8-methyl-3-keto-1,2,7,8-tertahydro-6H-pyran[a]isoindol-2-yl]-pentanoic acid]
